Reference: patent US7659404B2, “Broad spectrum 2-(substituted-amino)-benzothiazole sulfonamide HIV protease inhibitors” (Tibotec Pharmaceuticals Ltd., priority 2001, dated 2010)

Key:
wild type virus (IIIB) = experiment: HIV-AVE-MT4-MTT cellular assay, wild type virus (IIIB); type: cell-based; details: MT4 cells, MTT; for HIV-AVE-MT4-MTT-IIIB-2-002 pEC50: wild type virus (IIIB); for EC50: Human immunodeficiency virus 1, IIIB, MT4, wild type virus (IIIB), read-out: HIV-AVE-MT4-MTT-IIIB-2-002 pEC50 (converted)
Protocol: (§1) HIV- or mock-infected MT4 cells were incubated for five days in the presence of various concentrations of the inhibitor. At the end of the incubation period, all HIV-infected cells have been killed by the replicating virus in the control cultures in the absence of any inhibitor. Cell viability is measured by measuring the concentration of MTT, a yellow, water soluble tetrazolium dye that is converted to a purple, water insoluble formazan in the mitochondria of living cells only. Upon solubilization of the resulting formazan crystals with isopropanol, the absorbance of the solution is monitored at 540 nm. The values correlate directly to the number of living cells remaining in the culture at the completion of the five day incubation. The inhibitory activity of the compound was monitored on the virus-infected cells and was expressed as EC50 and EC90. These values represent the amount of the compound required to protect 50% and 90%, respectively, of the cells from the cytopathogenic effect of the virus. The toxicity of the compound was measured on the mock-infected cells and was expressed as CC50, which represents the concentration of compound required to inhibit the growth of the cells by 50%. The selectivity index (SI) (ratio CC50/EC50) is an indication of the selectivity of the anti-HIV activity of the inhibitor.

virus strain F (R13025) = experiment: microbe, parasite or virus in culture; type: cell-based, HIV; details: for HIV-AVE-MT4-MTT-R13025-2-002 pEC50: virus strain F (R13025), MT4 cells; for EC50: Human immunodeficiency virus 1, MT4, read-out: HIV-AVE-MT4-MTT-R13025-2-002 pEC50, virus strain F (R13025), MT4 cells, MTT (converted)
Protocol: as §1, with “At the end of the incubation period, all HIV-infected cells have been killed by the replicating virus in the control cultures in the absence of any inhibitor.” left out
(§2) Because of the increasing emergence of drug resistant HIV strains, the present compounds were tested for their potency against clinically isolated HIV strains harboring several mutations.
(§3) As a measure of the broad spectrum activity of the present compounds, the fold resistance (FR) defined as FR=EC50(mutant strain)/EC50(HIV-1 strain LAI).

virus strain S (R13080) = experiment: microbe, parasite or virus in culture; type: cell-based, HIV; details: for HIV-AVE-MT4-MTT-R13080-2-002 pEC50: virus strain S (R13080), MT4 cells; for EC50: Human immunodeficiency virus 1, MT4, read-out: HIV-AVE-MT4-MTT-R13080-2-002 pEC50, virus strain S (R13080), MT4 cells, MTT (converted)
Protocol: as §1, with “At the end of the incubation period, all HIV-infected cells have been killed by the replicating virus in the control cultures in the absence of any inhibitor.” left out
as §2, §3

With `CC(C)CN(C[C@@H](O)[C@H](Cc1ccccc1)NC(=O)OCc1cncs1)S(=O)(=O)c1ccc2nc(NC(=O)CN3CCNCC3)sc2c1` [Compound 157] the “HIV-AVE-MT4-MTT-IIIB-2-002 pEC50” value (wild type virus (IIIB)) was 7.54, the “HIV-AVE-MT4-MTT-R13025-2-002 pEC50” value (virus strain F (R13025)) was 7.5 and the “HIV-AVE-MT4-MTT-R13080-2-002 pEC50” value (virus strain S (R13080)) was 6.85.

In the case of `CC(C)CN(C[C@@H](O)[C@H](Cc1ccccc1)NC(=O)OCc1cncs1)S(=O)(=O)c1ccc2nc(NC(=O)C3CCCN(C)C3)sc2c1` (stereo partly drawn) [Compound 183], the EC50 (wild type virus (IIIB)) is reported as 3.55 nM, the EC50 (virus strain F (R13025)) is reported as 1.7 nM and the EC50 (virus strain S (R13080)) is reported as 7.08 nM.

`CC(C)CN(C[C@@H](O)[C@H](Cc1ccccc1)NC(=O)OCc1cncs1)S(=O)(=O)c1ccc2nc(NC(=O)c3ccc[nH]3)sc2c1` [Compound 179] was tested, and the EC50 (wild type virus (IIIB)) was 8.91 nM, the EC50 (virus strain F (R13025)) was 57.5 nM and the EC50 (virus strain S (R13080)) was 47.9 nM.

For `CC(=O)Nc1nc2ccc(S(=O)(=O)N(CC(C)C)C[C@@H](O)[C@H](Cc3ccccc3)NC(=O)COc3ccon3)cc2s1` [Compound 102], the EC50 (wild type virus (IIIB)) was 12 nM, the EC50 (virus strain F (R13025)) was 132 nM and the EC50 (virus strain S (R13080)) was 955 nM.

`CC(C)CN(C[C@@H](O)[C@H](Cc1ccccc1)NC(=O)OCc1cncs1)S(=O)(=O)c1ccc2nc(NC(=O)c3ccoc3)sc2c1` [Compound 164] gave an EC50 (wild type virus (IIIB)) of 7.08 nM, an EC50 (virus strain F (R13025)) of 33.9 nM and an EC50 (virus strain S (R13080)) of 158 nM.

Work on `CC(=O)NCCNc1nc2ccc(S(=O)(=O)N(CC(C)C)C[C@@H](O)[C@H](Cc3ccccc3)NC(=O)COc3c(C)cccc3C)cc2s1` [Compound 133] yielded an EC50 (wild type virus (IIIB)) of 21.4 nM, an EC50 (virus strain F (R13025)) of 33.9 nM and an EC50 (virus strain S (R13080)) of 158 nM.

With `CC(C)CN(C[C@@H](O)[C@H](Cc1ccccc1)NC(=O)OCc1cncs1)S(=O)(=O)c1ccc2nc(NC(=O)CN3CCN(C)CC3)sc2c1` [Compound 159] the “HIV-AVE-MT4-MTT-IIIB-2-002 pEC50” value (wild type virus (IIIB)) was 8.1, the “HIV-AVE-MT4-MTT-R13025-2-002 pEC50” value (virus strain F (R13025)) was 7.78 and the “HIV-AVE-MT4-MTT-R13080-2-002 pEC50” value (virus strain S (R13080)) was 7.46.

`Cc1cccc(C)c1OCC(=O)N[C@@H](Cc1ccccc1)[C@H](O)CN(CC(C)C)S(=O)(=O)c1ccc2nc(NC(=O)c3cc(O)cc(O)c3)sc2c1` [Compound 113] was tested, and the EC50 (wild type virus (IIIB)) was 5.13 nM, the EC50 (virus strain F (R13025)) was 24.5 nM and the EC50 (virus strain S (R13080)) was 43.7 nM.

Work on `COC(=O)CCNc1nc2ccc(S(=O)(=O)N(CC(C)C)C[C@@H](O)[C@H](Cc3ccccc3)NC(=O)OC(C)(C)C)cc2s1` [Compound 143] yielded an EC50 (wild type virus (IIIB)) of 74.1 nM, an EC50 (virus strain F (R13025)) of 10000 nM and an EC50 (virus strain S (R13080)) of 10000 nM.

For `CC(=O)Nc1nc2ccc(S(=O)(=O)N(CC(C)C)C[C@@H](O)[C@H](Cc3ccccc3)NC(=O)COc3c(C)cc(C)cc3C)cc2s1` [Compound 105], the EC50 (wild type virus (IIIB)) was 46.8 nM, the EC50 (virus strain F (R13025)) was 56.2 nM and the EC50 (virus strain S (R13080)) was 479 nM.

With `CC(C)CN(C[C@@H](O)[C@H](Cc1ccccc1)NC(=O)C(NC(=O)CNCc1cccc(F)c1)C(C)(C)C)S(=O)(=O)c1ccc2nc(NCCN3CCCC3)sc2c1` (stereo partly drawn) [Compound 189] the EC50 (wild type virus (IIIB)) was 44.7 nM, the EC50 (virus strain F (R13025)) was 102 nM and the EC50 (virus strain S (R13080)) was 138 nM.

With `CC(C)CN(C[C@@H](O)[C@H](Cc1ccccc1)NC(=O)OCc1cncs1)S(=O)(=O)c1ccc2nc(N3CCN(C)C3=O)sc2c1` [Compound 151] the EC50 (wild type virus (IIIB)) was 107 nM, the EC50 (virus strain F (R13025)) was 813 nM and the EC50 (virus strain S (R13080)) was 2690 nM.

In the case of `CC(C)CN(C[C@@H](O)[C@H](Cc1ccccc1)NC(=O)OCc1cncs1)S(=O)(=O)c1ccc2nc(N(C)C(=O)CN3CCN(C)CC3)sc2c1` [Compound 173], the “HIV-AVE-MT4-MTT-IIIB-2-002 pEC50” value (wild type virus (IIIB)) is reported as 8.25, the “HIV-AVE-MT4-MTT-R13025-2-002 pEC50” value (virus strain F (R13025)) is reported as 7.52 and the “HIV-AVE-MT4-MTT-R13080-2-002 pEC50” value (virus strain S (R13080)) is reported as 6.81.

Work on `Cc1cccc(C)c1OCC(=O)N[C@@H](Cc1ccccc1)[C@H](O)CN(CC(C)C)S(=O)(=O)c1ccc2nc(N(C)CCN3CCCC3)sc2c1` [Compound 115] yielded an EC50 (wild type virus (IIIB)) of 759 nM, an EC50 (virus strain F (R13025)) of 6170 nM and an EC50 (virus strain S (R13080)) of 10000 nM.

For `CC(C)CN(C[C@@H](O)[C@H](Cc1ccccc1)NC(=O)OCc1cncs1)S(=O)(=O)c1ccc2nc(NC(=O)c3ccno3)sc2c1` [Compound 172], the EC50 (wild type virus (IIIB)) was 42.7 nM, the EC50 (virus strain F (R13025)) was 245 nM and the EC50 (virus strain S (R13080)) was 813 nM.

For `Cc1cccc(C)c1OCC(=O)N[C@@H](Cc1ccccc1)[C@H](O)CN(CC(C)C)S(=O)(=O)c1ccc2nc(NC(=O)C3CCN(C)CC3)sc2c1` [Compound 127], the EC50 (wild type virus (IIIB)) was 16.6 nM, the EC50 (virus strain F (R13025)) was 31.6 nM and the EC50 (virus strain S (R13080)) was 135 nM.

Compound `CC(=O)NCCNc1nc2ccc(S(=O)(=O)N(CC(C)C)C[C@@H](O)[C@H](Cc3ccccc3)NC(=O)OC(C)(C)C)cc2s1` [Compound 121] has an EC50 (wild type virus (IIIB)) of 20.9 nM, an EC50 (virus strain F (R13025)) of 2820 nM and an EC50 (virus strain S (R13080)) of 10000 nM.
